Data reported in patent publication EP4703357A1, “TRIAZOLYL-CONTAINING COMPOUNDS” (Chia Tai Tianqing Pharmaceutical Group Co., Ltd., priority 2023, dated 2024).
Read-outs that look alike come from different tables or passages of the source.

How the values were obtained:
[1] = tested on: Jurkat cells; assay: Inhibitory activity on Jurkat cell proliferation (CCK-8); assay type: cell-based; conditions: Homo sapiens, 72 h incubation
Method: (§1) Jurkat cells in a good growth state were collected into a centrifuge tube, adjusted to a cell density of 5 × 10^4 cells/mL, and seeded in a 96-well plate (100 µL/well). The cells were incubated overnight in a cell incubator. Compounds were added using a nanoliter pipettor such that the final concentrations of the compounds were 1000 nM-0.46 nM (the addition was performed in duplicate). Meanwhile, a control was set. After another 72 h of incubation in the cell incubator, the assay reagent CCK-8 (manufacturer: Dojindo Laboratories, Beijing; 10 µL/well) was added. After 2 h of incubation in the cell incubator, absorbance was measured at 450 nm on an Envision microplate reader. A four-parameter analysis was performed, a dose-response curve was fit, and IC50 was calculated.

[2] = tested on: OCI-LY10 cells; assay: Inhibitory activity on OCI-LY10 cell proliferation (CCK-8); assay type: cell-based; conditions: Homo sapiens, 72 h incubation
Method: as §1, with “OCI-LY10 cells” for “Jurkat cells”, “of 9” for “of 5”

[3] = In vitro liver microsomal stability, human; assay type: in vitro ADME; conditions: human liver microsome 0.5 mg/mL, NADPH, 37 °C, 1 h
Method: (§2) Liver microsome incubation samples were prepared by mixing a PBS buffer (pH = 7.4), a liver microsome solution (0.5 mg/mL), a test compound, and an NADPH + MgCl2 solution, and incubated at 37 °C and 300 rpm for 1 h. Zero-hour samples were prepared by mixing a PBS buffer (pH = 7.4), a liver microsome solution (0.5 mg/mL), and a test compound. An acetonitrile solution containing an internal standard was added to the samples, and supernatants were prepared by protein precipitation, diluted, and then assayed by LC/MS/MS. Table 17. In vitro metabolic stability of related compounds in liver microsomes of various species

[4] = In vitro liver microsomal stability, mouse; assay type: in vitro ADME; conditions: mouse liver microsome 0.5 mg/mL, NADPH, 37 °C, 1 h
Method: as §2

[5] = Mouse pharmacokinetics; assay type: in vivo; conditions: ICR, plasma, po, 3 mg/kg, Mice administered intragastrically 3 mpk; for AUC(0-t): read-out: AUC (0-24)
Method: ICR mice weighing 18-22 g were randomized into groups of 9 mice per group after 3-5 days of acclimatization and then administered intragastrically at a dose of 3 mg/kg.
Plasma samples to be tested were prepared by taking blood from the orbit at time points of 15 min, 30 min, 1 h, 2 h, 4 h, 6 h, 8 h, 10 h, and 24 h.
20 µL of each plasma sample to be tested and a standard curve sample were taken, and an acetonitrile solution containing an internal standard was added. A supernatant was obtained by protein precipitation, diluted, and then assayed by LC/MS/MS.
Pharmacokinetic parameters were fitted using a non-compartmental model.

[6] = Mouse pharmacokinetics; assay type: in vivo, ICR mice; conditions: ICR, plasma; for AUC(0-t): read-out: AUC (0-24)
[7] = 1 mg/kg, Mice administered by single intravenous injection 1 mpk
[8] = po, 3 mg/kg, Mice administered intragastrically 3 mpk

| SMILES | IC50 [1] [µM] | IC50 [2] [µM] | Human liver microsome Residuals at 60 min (%) [3] [%] | Mouse liver microsome Residuals at 60 min (%) [4] [%] | also measured |
| --- | --- | --- | --- | --- | --- |
| NC(=O)/C(=C/n1cnc(-c2cc(C3CC3)nc(C(F)(F)F)c2)n1)c1ccc(C(F)(F)F)nc1 [Compound 60] | ≤ 0.02 | ≤ 0.04 | – | – | – |
| NC(=O)/C(=C/n1cnc(-c2cc(C3CC3)nc(C(F)(F)F)c2)n1)c1cccnc1F [Compound 32] | ≤ 0.02 | ≤ 0.04 | 100.32 | 95.08 | – |
| NC(=O)/C(=C/n1cnc(-c2cc(C(F)(F)F)nc(C(F)(F)F)c2)n1)c1cnc(NCC(F)F)nc1 [2(2-A)] | ≤ 0.02 | ≤ 0.04 | 92.23 | 87.82 | Cmax [5]: 483 ng/mL; Tmax [5]: 3 h; half-life [5]: 2.57 h; AUC(0-t) [5]: 2730 ng·h/mL; AUC(0-inf) [6, 7]: 879 ng·h/mL; clearance [6, 7]: 19 mL/min/kg; half-life [6, 7]: 1.26 h; AUC(0-t) [6, 7]: 874 ng·h/mL; AUC(0-inf) [6, 8]: 2730 ng·h/mL |
| CC(F)(F)CNc1ncc(/C(=C\n2cnc(-c3cc(C(F)(F)F)nc(C(F)(F)F)c3)n2)C(N)=O)cn1 [3(3-A)] | ≤ 0.02 | ≤ 0.04 | 95.65 | 94.26 | Cmax [5]: 681 ng/mL; Tmax [5]: 3 h; half-life [5]: 2.8 h; AUC(0-t) [5]: 5280 ng·h/mL; AUC(0-inf) [6, 7]: 1570 ng·h/mL; clearance [6, 7]: 10.6 mL/min/kg; half-life [6, 7]: 1.66 h; AUC(0-t) [6, 7]: 1540 ng·h/mL; AUC(0-inf) [6, 8]: 5300 ng·h/mL |
| N#Cc1cncc(/C(=C\n2cnc(-c3cc(C4CC4)nc(C(F)(F)F)c3)n2)C(N)=O)c1 [Compound 30] | ≤ 0.02 | ≤ 0.04 | 98.75 | 89.94 | – |
| C[C@@H](Nc1ncc(/C(=C\n2cnc(-c3cc(C4CC4)nc(C(F)(F)F)c3)n2)C(N)=O)cn1)C(F)(F)F [Compound 17] | ≤ 0.02 | ≤ 0.04 | 93.92 | 95.11 | – |
| NC(=O)/C(=C/n1cnc(-c2cc(C(F)(F)F)nc(C(F)(F)F)c2)n1)c1ccc(C(F)(F)F)nc1 [Compound 53] | ≤ 0.02 | ≤ 0.04 | – | – | – |
| NC(=O)/C(=C/n1cnc(-c2cc(C3CC3)nc(C(F)(F)F)c2)n1)c1ccncc1 [Compound 43] | ≤ 0.02 | ≤ 0.04 | – | – | – |
| N#Cc1cncc(/C(=C\n2cnc(-c3cc(C(F)(F)F)nc(C(F)(F)F)c3)n2)C(N)=O)c1 [Compound 10] | ≤ 0.02 | ≤ 0.04 | 95.75 | 93.99 | – |
| NC(=O)/C(=C/n1cnc(-c2cc(C(F)(F)F)nc(C(F)(F)F)c2)n1)c1ccc(NCC(F)(F)F)nc1 [Compound 46] | ≤ 0.02 | ≤ 0.04 | – | – | – |
| NC(=O)/C(=C/n1cnc(-c2cc(C3CC3)nc(C(F)(F)F)c2)n1)c1cncnc1 [Compound 13] | ≤ 0.02 | ≤ 0.04 | 93.23 | 91.15 | – |
| NC(=O)/C(=C/n1cnc(-c2cc(C(F)(F)F)nc(C(F)(F)F)c2)n1)c1ccc(NCC(F)F)nc1 [Compound 54] | ≤ 0.02 | ≤ 0.04 | – | – | – |
| NC(=O)/C(=C/n1cnc(-c2cc(C3CC3)nc(C(F)(F)F)c2)n1)c1cnc2ccccc2c1 [Compound 26] | ≤ 0.02 | ≤ 0.04 | 96.64 | 90.27 | – |
| NC(=O)/C(=C/n1cnc(-c2cc(C3CC3)nc(C(F)(F)F)c2)n1)c1cnc2cccnc2c1 [Compound 33] | ≤ 0.02 | ≤ 0.04 | 104.79 | 98.21 | – |
| NC(=O)/C(=C/n1cnc(-c2cc(C3CC3)nc(C(F)(F)F)c2)n1)c1ccc(F)nc1 [Compound 39] | ≤ 0.02 | ≤ 0.04 | 106.91 | 89.18 | – |
| NC(=O)/C(=C/n1cnc(-c2cc(C3CC3)nc(C(F)(F)F)c2)n1)c1ccc2ncccc2c1 [Compound 57] | ≤ 0.02 | ≤ 0.04 | – | – | – |
| NC(=O)/C(=C/n1cnc(-c2cc(C3CC3)nc(C(F)(F)F)c2)n1)c1cnc(NCC(F)(F)F)nc1 [Compound 16] | ≤ 0.02 | ≤ 0.04 | 88.75 | 90.60 | – |
| CC(F)(F)CNc1ncc(/C(=C\n2cnc(-c3cc(C4CC4)nc(C(F)(F)F)c3)n2)C(N)=O)cn1 [15(15-A)] | ≤ 0.02 | ≤ 0.04 | 87.55 | 88.38 | Cmax [5]: 599 ng/mL; Tmax [5]: 3 h; half-life [5]: 3.48 h; AUC(0-t) [5]: 4600 ng·h/mL; AUC(0-inf) [6, 7]: 1630 ng·h/mL; clearance [6, 7]: 10.2 mL/min/kg; half-life [6, 7]: 1.34 h; AUC(0-t) [6, 7]: 1620 ng·h/mL; AUC(0-inf) [6, 8]: 4650 ng·h/mL |
| NC(=O)/C(=C/n1cnc(-c2cc(C3CC3)nc(C(F)(F)F)c2)n1)c1ccc2cccnc2c1 [59(59-A)] | ≤ 0.02 | ≤ 0.04 | – | – | – |
| NC(=O)/C(=C/n1cnc(-c2cc(C3CC3)nc(C(F)(F)F)c2)n1)c1cnc(NCC(F)F)nc1 [Compound 14] | ≤ 0.02 | ≤ 0.04 | 80.48 | 83.14 | – |
| C[C@@H](Nc1ncc(/C(=C\n2cnc(-c3cc(C(F)(F)F)nc(C(F)(F)F)c3)n2)C(N)=O)cn1)C(F)(F)F [Compound 5] | ≤ 0.02 | ≤ 0.04 | 97.64 | 99.03 | – |
| NC(=O)/C(=C/n1cnc(-c2cc(C3CC3)nc(C(F)(F)F)c2)n1)c1ccc(NCC(F)(F)F)nc1 [Compound 40] | ≤ 0.02 | ≤ 0.04 | – | – | – |
| NC(=O)/C(=C/n1cnc(-c2cc(C3CC3)nc(C(F)(F)F)c2)n1)c1ccnc(F)c1 [Compound 36] | ≤ 0.02 | ≤ 0.04 | – | – | – |
| Cc1ccc(/C(=C\n2cnc(-c3cc(C4CC4)nc(C(F)(F)F)c3)n2)C(N)=O)cn1 [38(38-A)] | ≤ 0.02 | ≤ 0.04 | 102.40 | 83.25 | Cmax [5]: 874 ng/mL; Tmax [5]: 1 h; half-life [5]: 2.55 h; AUC(0-t) [5]: 3480 ng·h/mL; AUC(0-inf) [6, 7]: 1040 ng·h/mL; clearance [6, 7]: 16 mL/min/kg; half-life [6, 7]: 1.41 h; AUC(0-t) [6, 7]: 1040 ng·h/mL; AUC(0-inf) [6, 8]: 3800 ng·h/mL |
| NC(=O)/C(=C/n1cnc(-c2cc(C(F)(F)F)nc(C(F)(F)F)c2)n1)c1cnc(NCC(F)(F)F)nc1 [Compound 4] | ≤ 0.02 | ≤ 0.04 | 100.33 | 93.27 | – |
| NC(=O)/C(=C/n1cnc(-c2cc(C3CC3)nc(C(F)(F)F)c2)n1)c1ccc(NCC(F)F)nc1 [Compound 41] | ≤ 0.02 | ≤ 0.04 | – | – | – |
| NC(=O)C(=Cn1cnc(-c2cc(C(F)(F)F)nc(C(F)(F)F)c2)n1)c1cncnc1 [Compound 1] | ≤ 0.02 | ≤ 0.04 | 101.38 | 97.97 | – |
| NC(=O)/C(=C/n1cnc(-c2cc(C3CC3)nc(C(F)(F)F)c2)n1)c1cccc(F)n1 [Compound 37] | ≤ 0.02 | ≤ 0.04 | – | – | – |
